Assay results reported in patent publication US7632829B2, “Diazepan derivatives” (Hoffmann-La Roche Inc., priority 2006, dated 2009).

Target: T1, human chemokine receptor 2 isoform B (Homo sapiens, UniProt P41597)
T1 construct: host or cells: CHOK1-CCR2B-A5 (CHO-K1)
T1 sequence (P41597 1-360 isoform P41597-2): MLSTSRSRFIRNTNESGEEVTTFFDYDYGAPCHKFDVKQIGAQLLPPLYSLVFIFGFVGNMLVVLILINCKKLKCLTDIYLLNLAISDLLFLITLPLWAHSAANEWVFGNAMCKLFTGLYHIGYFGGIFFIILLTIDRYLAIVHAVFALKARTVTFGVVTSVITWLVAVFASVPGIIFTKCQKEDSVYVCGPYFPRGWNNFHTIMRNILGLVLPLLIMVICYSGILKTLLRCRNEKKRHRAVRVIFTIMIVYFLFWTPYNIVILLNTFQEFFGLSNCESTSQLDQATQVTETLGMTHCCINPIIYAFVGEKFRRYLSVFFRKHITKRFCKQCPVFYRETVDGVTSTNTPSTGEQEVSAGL
Experiment: Calcium mobilization assay (FLIPR, CHOK1-CCR2B-A5 cells, 20 nM MCP-1)
Type: cell-based
Settings: Ca mobilisation assay, CCR2, antagonist activity vs 20 nM MCP-1
In short: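 Antagonism read as IC50 against 20 nM MCP-1-evoked calcium rise (peak minus baseline Fluo-4 signal, FLIPR) in CCR2B-overexpressing CHO-K1 cells. Compounds were preincubated 20-30 min at 30 °C, with agonist activity recorded for 80 s on addition.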

| IC50 | Compound |
| --- | --- |
| 995 nM | O=C(/C=C/c1ccc(Cl)c(Cl)c1)N1CCC(=O)N(CCC(O)CN2CCCC(O)C2)CC1 (racemic) [Example 171, (rac)-1-[(E)-3-(3,4-Dichloro-phenyl)-acryloyl]-4-[3-hydroxy-4-(3-hydroxy-piperidin-1-yl)-butyl]-[1,4]diazepan-5-one] |
| 707 nM | C[C@@H]1CN(CC(O)CN2CCN(C(=O)C=Cc3ccc(Cl)c(Cl)c3)CCC2=O)CC[C@@H]1O (mixture of isomers) [Example 318] |
| 363 nM | O=C(/C=C/c1ccc(F)c(Cl)c1)N1CCC(=O)N(CCCN2CCCCC2)CC1 [Example 11, 1-[(E)-3-(3-Chloro-4-fluoro-phenyl)-acryloyl]-4-(3-piperidin-1-yl-propyl)-[1,4]diazepan-5-one] |
| 75 nM | NC(=O)COC1CCC(CO)N(CCCCN2CCN(C(=O)/C=C/c3ccc(Cl)c(Cl)c3)CCC2=O)C1 (racemic) [Example 485] |
| 1200 nM | CC1(CO)CCCN1CC(O)CN1CCN(C(=O)C=Cc2ccc(Cl)c(Cl)c2)CCC1=O (racemic) [Example 322] |
| 223 nM | O=C1NCC2(CCN(CCCN3CCN(C(=O)/C=C/c4ccc(Cl)c(Cl)c4)CCC3=O)CC2)O1 [Example 84, 8-(3-{4-[(E)-3-(3,4-Dichloro-phenyl)-acryloyl]-7-oxo-[1,4]diazepan-1-yl}-propyl)-1-oxa-3,8-diaza-spiro[4.5]decan-2-one] |
| 1230 nM | C[C@@H]1CN(CC(O)CCN2CCN(C(=O)/C=C/c3ccc(Cl)c(Cl)c3)CCC2=O)CC[C@H]1O (mixture of isomers) [Example 372, (rac)-1-[(E)-3-(3,4-Dichloro-phenyl)-acryloyl]-4-[3-hydroxy-4-(trans-4-hydroxy-3-methyl-piperidin-1-yl)-butyl]-[1,4]diazepan-5-one] |
| 113 nM | CC1C(O)CCCN1CCCCN1CCN(C(=O)C=Cc2ccc(Cl)c(Cl)c2)CCC1=O (mixture of isomers) [Example 428, (rac,trans)-1-[(E)3-(3,4-Dichloro-phenyl)-acryloyl]-4-[4-(3-hydroxy-2-methyl-piperidin-1-yl)-butyl]-[1,4]diazepan-5-one] |
| 57 nM | CC1CCN(CCCN2CCN(C(=O)C=Cc3ccc(Cl)c(Cl)c3)CCC2=O)CC1O (single isomer, unassigned) [Example 259, 1-[(E)-3-(3,4-Dichloro-phenyl)-acryloyl]-4-[3-((+, cis)-3-hydroxy-4-methyl-piperidin-1-yl)-propyl]-[1,4]diazepan-5-one] |
| 561 nM | CC1(CO)CCCN1CCCN1CCN(C(=O)/C=C/c2ccc(Cl)c(Cl)c2)CCC1=O (racemic) [Example 255] |
| 84 nM | CC1(C)CCN(CC(O)CN2CCN(C(=O)/C=C/c3ccc(F)c(F)c3)CCC2=O)CC1O (racemic) [Example 499] |
| 681 nM | O=C(/C=C/c1cccc(Cl)c1)N1CCC(=O)N(CCN2CCCC2)CC1 [Example 1, 1-[(E)-3-(3-Chloro-phenyl)-acryloyl]-4-(2-pyrrolidin-1-yl-ethyl)-[1,4]diazepan-5-one] |
| 89 nM | O=C(/C=C/c1ccc(Cl)c(Cl)c1)N1CCC(=O)N(CCCCN2CCCC(CO)C2)CC1 (racemic) [Example 425] |
| 531 nM | COC(=O)NC1CCN(CC(O)CCN2CCN(C(=O)/C=C/c3ccc(Cl)c(Cl)c3)CCC2=O)CC1 (racemic) [Example 364] |
| 9 nM | CC1(C)CCN(CCCCN2CCN(C(=O)/C=C/c3ccc(Cl)c(Cl)c3)CCC2=O)CC1O (racemic) [Example 481] |
| 206 nM | CC1CCCN(CC(O)CN2CCN(C(=O)/C=C/c3ccc(Cl)c(Cl)c3)CCC2=O)C1 (racemic) [Example 288] |
| 389 nM | CC(=O)NC1CCCN(CCCCN2CCN(C(=O)/C=C/c3ccc(Cl)c(Cl)c3)CCC2=O)C1 (racemic) [Example 466] |

| IC50 | Compound |
| --- | --- |
| 409 nM | O=C(/C=C/c1ccc(Cl)c(Cl)c1)N1CCC(=O)N(CCCN2CCCCC2CO)CC1 (racemic) [Example 227] |
| 1360 nM | O=C(/C=C/c1ccc(F)c(Cl)c1)N1CCC(=O)N(C[C@@H](O)CN2CC[C@@H](CO)[C@H](O)C2)CC1 (mixture of isomers) [Example 339, 1-[(E)-3-(3-Chloro-4-fluoro-phenyl)-acryloyl]-4-[(S)-2-hydroxy-3-(trans-3-hydroxy-4-hydroxymethyl-piperidin-1-yl)-propyl]-[1,4]diazepan-5-one] |
| 385 nM | CC1CN(C(=O)/C=C/c2ccc(Cl)c(Cl)c2)CCN(CCCN2CCCCC2)C1=O (racemic) [Example 187, (rac)-1-[(E)-3-(3,4-Dichloro-phenyl)-acryloyl]-6-methyl-4-(3-piperidin-1-yl-propyl)-[1,4]diazepan-5-one] |
| 347 nM | O=C(/C=C/c1ccc(Cl)c(Cl)c1)N1CCC(=O)N(CCCCN2CC[C@H](CO)[C@H](O)C2)CC1 (racemic) [Example 468] |
| 43 nM | O=C(/C=C/c1ccc(Cl)c(Cl)c1)N1CCC(=O)N(CCCCN2CC[C@@H](CO)[C@H](O)C2)CC1 (racemic) [Example 471] |
| 391 nM | COCC1(C)CCCN(CC(O)CN2CCN(C(=O)/C=C/c3ccc(Cl)c(Cl)c3)CCC2=O)C1 (racemic) [Example 306] |
| 765 nM | CC1CCCN1CCN1CCN(C(=O)/C=C/c2ccc(Cl)c(Cl)c2)CCC1=O (racemic) [Example 348] |
| 103 nM | CC1CN(CCCCN2CCN(C(=O)/C=C/c3ccc(Cl)c(Cl)c3)CCC2=O)CCC1O (racemic) [Example 440] |
| 618 nM | COCC1C(O)CCC(C)N1CCCCN1CCN(C(=O)C=Cc2ccc(Cl)c(Cl)c2)CCC1=O (racemic) [Example 488, (rac,cis)-1-[(E)-3-(3,4-Dichloro-phenyl)-acryloyl]-4-[4-(3-hydroxy-2-methoxymethyl-6-methyl-piperidin-1-yl)-butyl]-[1,4]diazepan-5-one] |
| 807 nM | CC1CCN(CC(O)CCN2CCN(C(=O)/C=C/c3ccc(Cl)c(Cl)c3)CCC2=O)CC1O (racemic) [Example 359] |
| 348 nM | (rac)-N-[1-(4-{4-[(E)-3-(3,4-Dichloro-phenyl)-acryloyl]-7-oxo-[1,4]diazepan-1-yl}-butyl)-piperidin-3-yl]-acetamide [Example 463] |
| 8 nM | O=C(/C=C/c1ccc(Cl)c(Cl)c1)N1CCC(=O)N(CCCN2CCC3(CC3)C(O)C2)CC1 (racemic) [Example 251] |
| 154 nM | O=C(/C=C/c1ccc(Cl)c(Cl)c1)N1CCC(=O)N(CCCN2CCC(CO)CC2)CC1 [Example 229] |
| 703 nM | O=C(/C=C/c1ccc2ccccc2c1)N1CCC(=O)N(CCCN2CCCCC2)CC1 [Example 157, 1-((E)-3-Naphthalen-2-yl-acryloyl)-4-(3-piperidin-1-yl-propyl)-[1,4]diazepan-5-one] |
| 226 nM | CC1(CO)CCCN(CCCN2CCN(C(=O)/C=C/c3ccc(Cl)c(Cl)c3)CCC2=O)C1 (racemic) [Example 248] |
| 46 nM | O=C(/C=C/c1ccc(Cl)c(Cl)c1)N1CCC(=O)N(CCCN2CCSCC2)CC1 [Example 51, 1-[(E)-3-(3,4-Dichloro-phenyl)-acryloyl]-4-(3-thiomorpholin-4-yl-propyl)-[1,4]diazepan-5-one] |
| 27 nM | O=C(/C=C/c1ccc(Cl)c(F)c1)N1CCC(=O)N(CCCCN2CCC3(CC3)C(O)C2)CC1 (centres unmarked) [Example 415] |

| Compound | IC50 |
| --- | --- |
| 4-(3-{4-[(E)-3-(3,4-Dichloro-phenyl)-acryloyl]-7-oxo-[1,4]diazepan-1-yl}-propylamino)-cyclohexanecarboxylic acid amide [Example 77] | 326 nM |
